Where two headings read alike, the source gives them in different places. Values belong to the compound of their own block, whether it stands above or below them.
Tests used:
[1] = system: face allodynia in the infraorbital nerve ligation model; assay: Partial infraorbital nerve ligation model, reversal of face allodynia (head withdrawal threshold, von Frey); type: in vivo; settings: Rattus norvegicus, po; per os; mean (S.E.M.); individual maximum post-dose reversals; combination in terms of doses of the individual components; read-out: ED50 (effective dose causing 50% reversal of the allodynia)
Protocol: Infraorbital nerve ligation models, either by partial ligation or by the loose ligation of the whole nerve (chronic constriction injury) have been used as models of trigeminal neuralgia or trigeminal neuropathic pain. […] Male Sprague-Dawley rats weighing 200-220 g at surgery and 290-390 g at the time of testing were used. As primary read-outs of tactile pain sensitivity of the face, head withdrawal thresholds were measured by repeated stimulations using von Frey filaments (Touch Test Sensory Probes, Stoelting®). Before surgery, the rats were habituated to the testing for two weeks, first by handling (for 2 days) and then by repeated touching with von Frey filaments and finally determination of 50% head withdrawal thresholds (HWT) on three consecutive days. Rats with HWT<10 g at 2 out of 3 pre-surgery tests were not enrolled in the study. Sensitivity of the orofacial region was tested using calibrated von Frey filaments, with a series of filaments with bending force ranging between 0.4-14.8 g. […] HWTs were determined using Chaplan's up-down method, starting with the filament of 2 g bending force. […] The evaluated post-dose data (HWTs in gram) were converted to percent reversals, taking the simultaneous post-dose average HWT value of the vehicle treated group as 0% and the pre-surgery average value of animals involved in the test substance-treated group as 100%.

[2] = system: periorbital allodynia in the dural inflammation model; assay: Dural inflammation (inflammatory soup) model, reversal of periorbital allodynia (periorbital threshold, von Frey); type: in vivo, rat; settings: 90 min post-dose; for reversal of allodynia at the medium dose level: solo 0.6 mg/kg per os
Source text: Male Sprague-Dawley rats weighing approximately 250 g at surgery were used. Rats were habituated and trained for 1-2 weeks and then fitted with a stainless-steel cannula (22GA, Plastics One) under isoflurane anesthesia. […] Special attention was given not to disturb the dura. A custom flange guide cannula (22GA, Plastics One) was inserted into the hole (cut 0.5 mm below pedestal). The cannula was fixed to the bone with small screws and dental cement. A dummy that extended just past the end of the guide cannula was inserted to prevent scar tissue from forming, and thus clogging the cannula. Animals were allowed 1-2 weeks of recovery before testing and infusions began. Periorbital thresholds (POT) were monitored 7-10 days after surgery to ensure the thresholds generally returned to pre-surgery baselines.
While under isoflurane anesthesia, the infusion procedure proceeded over 5 consecutive days in which a Hamilton syringe attached to an infusion pump was used to deliver 15 μL of inflammatory soup over 8 minutes, at a rate of 1.759 μL/min. The Hamilton syringe was connected to tubing with a custom cannula injector at the tip; the syringe, tubing line, and injector were filled to the tip with inflammatory soup solution. The custom cannula injector was inserted into the flange cannula and the infusion started. The inflammatory soup contained 2 mM histamine, 2 mM bradykinin, 2 mM serotonin, and 0.2 mM prostaglandin E2 dissolved in saline.
Only animals that developed sustained hypersensitivity and satisfied the periorbital sensitivity criteria (POT<2.5 g) were enrolled into the study and each week into test groups.
Sensory testing was performed on testing days using von Frey filaments (Stoelting®, Wood Dale, Illinois) with reproducible calibrated buckling forces varying from 0.4-10 g utilizing Chaplan's up-down method. The specific fibers utilized were 3.61 (0.4 g), 3.84 (0.6 g), 4.08 (1 g), 4.31 (2 g), 4.56 (4 g), 4.74 (6 g), 4.93 (8 g), and 5.07 (10 g); 4.31 (2 g) was the starting fiber. Allodynia was tested by gently restraining the rat in the investigator's hand by holding the rat in one hand with fingers just behind the left forepaw, keeping the animal pressed against the investigator's chest. Fibers were applied by perpendicularly touching the rostral portion of the periorbital region (below the lower eye margin close to the rostral corner) causing slight buckling of the filament for approximately 5 seconds. Based on the response pattern and the force of the final filament, the withdrawal threshold (g) was calculated.
On testing days, a blinded investigator tested periorbital sensitivity pre-dose, 45 min, 90 min, and 135 min after drug administration. […]

[3] = Pharmacokinetic interaction study of lisinopril and memantine; type: in vivo; settings: rat, serum
Protocol: The statistical significance of differences between corresponding solo treatment and combination treatment mean values was evaluated by Student's unpaired t-test. The areas under the curve between TO (time of dosing) and last tested timepoint (135 min) were also calculated to assess the drug exposures in each animal (Table 2).

cardiovascular system = assay: Cardiovascular telemetry in awake unrestrained normotensive rats; type: in vivo, rat; settings: for Heart rate; difference from Vehicle treated, Mean / Mean arterial blood pressure; difference from Vehicle treated, Mean: oral gavage, post-dose period of 3-6 hours
Protocol: The cardiovascular parameters of normotensive rats instrumented with telemetric devices were investigated to determine whether the observed in vivo pharmacodynamic synergy exists also for cardinal side effects of the drug components of the combination. As lisinopril is an antihypertensive drug, its vasodilator and antihypertensive effects or other related cardiovascular effects may be cardinal side effects. Therefore, a cardiovascular telemetry study was performed with lisinopril, memantine and their combination in rats. Male Sprague-Dawley rats weighing 250-300 g at the start of the investigations were used. The animals were housed individually in artificially lightened chambers with a 12 h light and dark cycle (lights on at 07:00) and an ambient temperature of 20-22° C. Radiotelemetric units comprising transmitters with built in sensors (Data Sciences International, USA, Type: HD-S11) were surgically implanted into rats under sodium pentobarbital (50 mg/kg, i.p.) induced anesthesia. The rat abdomen was opened by a midline laparotomy. After visualizing the aorta, it was separated from the vena cava just caudal to the left dorsal muscular branch. A piece of 5-0 suture was placed between the vena cava and aorta so that the suture lied underneath the aorta. By this suture the aorta was temporarily occluded, and the catheter introduced into the vessel. After drying the aorta around the catheter entry site, a small amount of tissue adhesive was applied and 5-10 seconds later the suture was loosened. The bipolar ECG leads were tunneled subcutaneously into Lead II position and fixed with surgical sutures. Closure of the abdomen and skin was followed by 7 days recovery period. […] Drug tests were performed on 8 rats used repeatedly according to a 4-way crossover design, carried out in three sessions. In each session, all the 8 animals were treated and tested on 4 occasions with 3- or 4-days washout periods between treatments (i.e. Mondays and Thursdays in two weeks), so that on each occasion 4 pairs of rats were treated with 4 types of treatment (vehicle control, test substance A, test substance B and combination A+B), and during the 4 occasions all the animals were given all the 4 types of treatment according to a Latin-square 4-way crossover design. In the three consecutive 2-week-long sessions, three dose levels of test substances were tested in an escalating order. […] For evaluation and data reduction, pre-dose 10-min, post-dose 30-min segment averages were calculated and plotted (FIG. 5). […] None of the test substance treatments caused any apparent effect on the body temperature as compared to vehicle control data. The stress of handling and oral gavage administration caused a transient increase in both blood pressure and heart rate as indicated by changes in the vehicle treated data. However, after these transient changes, blood pressure and heart rate returned to the pre-dose level in the vehicle control group. […] For within session statistical analysis of differences from vehicle control, one-way ANOVA followed by Dunnett's test was used.

[4] = system: central nervous system (horizontal locomotor activity); assay: Locomotor activity test; type: in vivo, rat; settings: 60-90 minutes post-dose
Source text: Memantine is a neurological drug with neurological side effects at high doses, such as sedative or dissociative or psychotomimetic side effects in humans, and locomotion stimulating and motor coordination impairing effects in rodents. Therefore, as a further test to see if pharmacodynamic synergy exists also for cardinal side effects of the drug components of the combination two central nervous system side effect assessing pharmacodynamic interaction studies (locomotor activity and rotarod tests) were performed with lisinopril, memantine and their combination in rats. Male Sprague Dawley rats weighing 200-250 g at start of testing were used. Animals were acclimatized to the laboratory conditions for at least 5 days before the first experiment and kept under artificial lighting between 7:00 and 19:00 in a controlled ambient temperature of 22±2° C. One hundred animals were assigned to ten treatment groups, which were tested in parallel with appropriate randomization, time shifts and cohorts needed to exploit the capacity of test apparatus. […] Corresponding dose levels of the combination were half of the doses of the solo drug treatments. […] The test substances were dissolved in physiological saline for dosing volume of […]. The test substances were administered per os by gavage. First, the locomotor test was carried out. One week later, the same animals received the same treatment and were tested in the rotarod test. The locomotor activity test detects stimulant or sedative activity. The activity meter consisted of 16 covered Plexiglas cages (40×25×25 cm) contained within a darkened enclosure and connected to silent electronic counters. Each cage was equipped with four photocell assemblies (two at each end of the cage) 3 cm above the floor to measure the number of movements by each animal (one per cage) in the horizontal plane. The number of (horizontal) crossings by each animal (one per cage) from one pair of photocells to the other was recorded by computer in 10-minute intervals. […] The cumulated events in the period of 60-90 minutes post-dose were evaluated.

[5] = system: central nervous system (rotarod performance); assay: Accelerating rotarod test; type: in vivo, rat; settings: any of the three dose levels: 0.6, 2, 6 mg/kg solo; 0.3+0.3, 1+1, 3+3 mg/kg combination; per os; 45 and 90 min post-dose
Protocol: Animals were acclimatized to the laboratory conditions for at least 5 days before the first experiment and kept under artificial lighting between 7:00 and 19:00 in a controlled ambient temperature of 22±2° C. One hundred animals were assigned to ten treatment groups, which were tested in parallel with appropriate randomization, time shifts and cohorts needed to exploit the capacity of test apparatus. The test groups comprised nine test substance treated groups, of three treatment types (lisinopril, memantine and their 1:1 combination), each administered at three dose levels, and a vehicle control group for comparison. Corresponding dose levels of the combination were half of the doses of the solo drug treatments. Thus, the tested dose levels were 0.6, 2 and 6 mg/kg for the solo treatments and 0.3+0.3, 1+1 and 3+3 mg/kg for the combination. The test substances were dissolved in physiological saline for dosing volume of 5 mg/kg. The test substances were administered per os by gavage. […] One week later, the same animals received the same treatment and were tested in the rotarod test.
The rotarod test detects neurological deficits. Rats were placed on a rod (diameter: 7 cm) rotating at a constant speed of 4 revolutions per minute for a 2-minute period. When they fell off during this period they were replaced on the rod. […] The latency to fall off was recorded (cut-off: 3 minutes). […]

[6] = Lisinopril 0.3 mg/kg, read-out: Concentration of Lisinopril, Mean
[7] = Lisinopril 1 mg/kg, read-out: Concentration of Lisinopril, Mean
[8] = dose 0.3 mg/kg (combination containing the same dose of lisinopril)
[9] = dose 1 mg/kg (combination containing the same dose of lisinopril)
[10] = dose 3 mg/kg (combination containing the same dose of lisinopril)
[11] = Memantine 0.3 mg/kg, read-out: Concentration of Memantine, Mean
[12] = Memantine 1 mg/kg, read-out: Concentration of Memantine, Mean

concentration at 45 min [3, 6]: 5.75 ng/mL
concentration at 90 min [3, 6]: 9.44 ng/mL
concentration at 135 min [3, 6]: 14.2 ng/mL
concentration at 45 min [3, 7]: 9.86 ng/mL
concentration at 90 min [3, 7]: 43 ng/mL
concentration at 135 min [3, 7]: 57 ng/mL
AUC(0-t) ([3]; dose 0.3 mg/kg, read-out: Mean AUC (AUC0-135 min) of Lisinopril, Solo (converted)): 16.7 ng·h/mL
AUC(0-t) ([3]; dose 1 mg/kg, read-out: Mean AUC (AUC0-135 min) of Lisinopril, Solo (converted)): 61 ng·h/mL
SMILES: NCCCC[C@H](N[C@@H](CCc1ccccc1)C(=O)O)C(=O)N1CCC[C@H]1C(=O)O [Lisinopril, (S)-1-[N2-(1-carboxy-3-phenylpropyl)-L-lysyl]-L-proline]
ED50 [1]: 0.488 mg/kg
ED40 (effective dose causing 40% reversal of the allodynia) ([2]; per os): 1.85 mg/kg
reversal of allodynia at the medium dose level [2]: around 15%
suppression of the blood pressure (cardiovascular system; almost dose-independently, 0.3-3 mg/kg): about 7 mmHg
Heart rate; difference from Vehicle treated, Mean (cardiovascular system; [8]): 8.37 beats per min
Mean arterial blood pressure; difference from Vehicle treated, Mean (cardiovascular system; [8]): −7.05 mmHg
Heart rate; difference from Vehicle treated, Mean (cardiovascular system; [9]): 20.62 beats per min
Mean arterial blood pressure; difference from Vehicle treated, Mean (cardiovascular system; [9]): −7.47 mmHg
Heart rate; difference from Vehicle treated, Mean (cardiovascular system; [10]): 29.39 beats per min
Mean arterial blood pressure; difference from Vehicle treated, Mean (cardiovascular system; [10]): −7.72 mmHg
effect on the locomotor activity ([4]; any of the three dose levels: 0.6, 2, 6 mg/kg solo, 0.3+0.3, 1+1, 3+3 mg/kg combination, per os): neither lisinopril nor the combination exerted a significant effect
effect on rotarod performance (latency to fall off) [5]: neither lisinopril, nor memantine, nor their combination had a significant effect

concentration at 45 min [3, 11]: 5.58 ng/mL
concentration at 90 min [3, 11]: 8.46 ng/mL
concentration at 135 min [3, 11]: 8.91 ng/mL
concentration at 45 min [3, 12]: 11.4 ng/mL
concentration at 90 min [3, 12]: 22.3 ng/mL
concentration at 135 min [3, 12]: 24.2 ng/mL
AUC(0-t) ([3]; dose 0.3 mg/kg, read-out: Mean AUC (AUC0-135 min) of Memantine, Solo (converted)): 13.9 ng·h/mL
AUC(0-t) ([3]; dose 1 mg/kg, read-out: Mean AUC (AUC0-135 min) of Memantine, Solo (converted)): 34.4 ng·h/mL
effect on the locomotor activity ([4]; highest dose level (6 mg/kg per os)): significant increase
effect on the locomotor activity ([4]; two lower dose levels (0.6 and 2 mg/kg per os)): not at the two lower dose levels
SMILES: CC12CC3CC(C)(C1)CC(N)(C3)C2 [Memantine, 1-amino-3,5-dimethyladamantane]
ED50 [1]: 0.478 mg/kg
reversing effect on the allodynia (percent reversal) ([2]; per os 0.2, 0.6 and 2 mg/kg): ≤ 15%
reversal of allodynia at the medium dose level [2]: around 15%
effect on hemodynamic parameters (blood pressure, heart rate) (cardiovascular system; 0.3, 1 and 3 mg/kg, combination compared with lisinopril): no effect
Heart rate; difference from Vehicle treated, Mean (cardiovascular system; [8]): −2.87 beats per min
Mean arterial blood pressure; difference from Vehicle treated, Mean (cardiovascular system; [8]): −1.39 mmHg
Heart rate; difference from Vehicle treated, Mean (cardiovascular system; [9]): −8.51 beats per min
Mean arterial blood pressure; difference from Vehicle treated, Mean (cardiovascular system; [9]): 0.11 mmHg
Heart rate; difference from Vehicle treated, Mean (cardiovascular system; [10]): −3.03 beats per min
Mean arterial blood pressure; difference from Vehicle treated, Mean (cardiovascular system; [10]): −0.13 mmHg
effect on rotarod performance (latency to fall off) [5]: neither lisinopril, nor memantine, nor their combination had a significant effect

From patent US20250302802A1, “METHODS AND COMPOSITIONS” (VRG 145 ZRT., priority 2024, published 2025)
